Reference: the NIST ThermoML archive (doi:10.1016/j.jct.2008.12.010)
Numbers after ± are expanded uncertainties.

Assay: xn = mol fraction of the nth substance listed
Settings: for speed of sound / mass density: Liquid; for speed of sound: Linear variable-path acoustic interferometer; for mass density: Vibrating tube method; for surface tension liquid-gas: Drop volume

CCOC(=O)OCC [diethyl carbonate] + Cc1ccc(C)cc1
Settings | mass density [kg/m3] | speed of sound [m/s] | surface tension liquid-gas [mN/m]
288.15 K, x1 = 0.0509 | 871.12 ± 0.23 | 1343.5 ± 2 | –
288.15 K, x1 = 0.0985 | 876.57 ± 0.23 | 1336.8 ± 1.9 | –
288.15 K, x1 = 0.1975 | 887.94 ± 0.21 | 1322.8 ± 1.9 | –
288.15 K, x1 = 0.2974 | 899.4 ± 0.2 | 1308.7 ± 1.9 | –
288.15 K, x1 = 0.3983 | 910.97 ± 0.19 | 1294.6 ± 1.9 | –
288.15 K, x1 = 0.5023 | 922.91 ± 0.18 | 1280.2 ± 1.8 | –
288.15 K, x1 = 0.5485 | 928.22 ± 0.17 | 1274 ± 1.8 | –
288.15 K, x1 = 0.5968 | 933.78 ± 0.17 | 1267.5 ± 1.8 | –
288.15 K, x1 = 0.6464 | 939.5 ± 0.17 | 1261 ± 1.8 | –
288.15 K, x1 = 0.6992 | 945.6 ± 0.16 | 1254.2 ± 1.8 | –
288.15 K, x1 = 0.7976 | 956.98 ± 0.15 | 1241.8 ± 1.7 | –
288.15 K, x1 = 0.8515 | 963.21 ± 0.15 | 1235.1 ± 1.7 | –
288.15 K, x1 = 0.9 | 968.83 ± 0.14 | 1229.4 ± 1.7 | –
288.15 K, x1 = 0.9507 | 974.69 ± 0.14 | 1223.5 ± 1.7 | –
293.15 K, x1 = 0.04951 | 866.58 ± 0.23 | 1322.7 ± 1.9 | –
293.15 K, x1 = 0.09841 | 872.13 ± 0.23 | 1315.9 ± 1.9 | –
293.15 K, x1 = 0.2007 | 883.74 ± 0.21 | 1301.6 ± 1.9 | –
293.15 K, x1 = 0.3004 | 895.04 ± 0.2 | 1287.6 ± 1.9 | –
293.15 K, x1 = 0.4017 | 906.52 ± 0.19 | 1273.5 ± 1.8 | –
293.15 K, x1 = 0.4997 | 917.64 ± 0.18 | 1260 ± 1.8 | –
293.15 K, x1 = 0.5976 | 928.79 ± 0.17 | 1246.8 ± 1.8 | –
293.15 K, x1 = 0.65 | 934.76 ± 0.17 | 1239.9 ± 1.8 | –
293.15 K, x1 = 0.6999 | 940.46 ± 0.16 | 1233.4 ± 1.8 | –
293.15 K, x1 = 0.7969 | 951.55 ± 0.15 | 1221.2 ± 1.7 | –
293.15 K, x1 = 0.8522 | 957.87 ± 0.15 | 1214.5 ± 1.7 | –
293.15 K, x1 = 0.9516 | 969.28 ± 0.14 | 1203.1 ± 1.7 | –
298.15 K, x1 = 0.05081 | – | 1301.4 ± 1.9 | –
298.15 K, x1 = 0.05201 | – | – | 27.27 ± 0.28
298.15 K, x1 = 0.09983 | – | – | 27.12 ± 0.28
298.15 K, x1 = 0.1564 | – | 1286.7 ± 1.9 | –
298.15 K, x1 = 0.2023 | – | – | 26.85 ± 0.27
298.15 K, x1 = 0.2581 | – | 1272.5 ± 1.9 | –
298.15 K, x1 = 0.3052 | – | 1265.9 ± 1.9 | –
298.15 K, x1 = 0.3063 | – | – | 26.61 ± 0.27
298.15 K, x1 = 0.4021 | – | 1252.4 ± 1.8 | –
298.15 K, x1 = 0.4043 | – | – | 26.39 ± 0.26
298.15 K, x1 = 0.4446 | – | – | 26.31 ± 0.26
298.15 K, x1 = 0.5042 | – | – | 26.19 ± 0.26
298.15 K, x1 = 0.5936 | – | – | 26.01 ± 0.26
298.15 K, x1 = 0.7041 | – | – | 25.8 ± 0.26
298.15 K, x1 = 0.7994 | – | – | 25.65 ± 0.25
298.15 K, x1 = 0.8968 | – | – | 25.52 ± 0.25
